Assay results taken from article PMC11997890, “In Vivo and In Vitro Pharmacokinetic Studies of a Dual Topoisomerase I/II Inhibitor” (ACS Pharmacology & Translational Science, 2025).

Assays:
[1] = molecular target: T1, CYP2B6 (Homo sapiens, UniProt P20813); test: In vitro CYP inhibition, marker substrate bupropion; type: in vitro ADME
T1 construct: host or cells: human liver microsomes (one value) / recombinant CYP enzyme (other value)
Procedure: (§1) To assess metabolizing enzyme-mediated drug interactions, P8-D6 was incubated with human liver (HLM) or recombinant CYP enzymes and the respective marker substrate according to the FDA (with the exception of using amitriptyline instead of S-mephenytoin). −
(§2) However, as some conversions were catalyzed by several enzymes, the conversion rates in HLM increased (e.g., bupropion and diclofenac).
(§3) To examine a possible in vitro CYP inhibition, the following CYP enzymes and marker substrates were investigated according to the FDA: , phenacetin (CYP1A2), bupropion (CYP2B6), amodiaquine (CYP2C8), diclofenac (CYP2C9), amitriptyline (CYP2C19), dextromethorphan (CYP2D6), testosterone (CYP3A4), and nifedipine (CYP3A4). Incubation was performed in a 0.2 mL reaction mix consisting of PBS buffer (pH 7.4), 1 mM marker substrate, 1 mM NADPH, and either 0.5 mg/mL recombinant CYP enzyme or human liver microsomes. P8-D6 was added for a final concentration of 0.5 μM, 1 μM, 5 μM, 10 μM, 25 μM, 50 μM, 100 μM, 500 μM, 1000 μM, and (in some cases) 5000 μM. Sample preparation was performed according to in vitro biotransformation.

[2] = molecular target: T2, CYP1A2 (Homo sapiens, UniProt P05177); test: In vitro CYP inhibition, marker substrate phenacetin; type: in vitro ADME
T2 construct: host or cells: human liver microsomes (one value) / recombinant CYP enzyme (other value)
T2 sequence (P05177 whole entry): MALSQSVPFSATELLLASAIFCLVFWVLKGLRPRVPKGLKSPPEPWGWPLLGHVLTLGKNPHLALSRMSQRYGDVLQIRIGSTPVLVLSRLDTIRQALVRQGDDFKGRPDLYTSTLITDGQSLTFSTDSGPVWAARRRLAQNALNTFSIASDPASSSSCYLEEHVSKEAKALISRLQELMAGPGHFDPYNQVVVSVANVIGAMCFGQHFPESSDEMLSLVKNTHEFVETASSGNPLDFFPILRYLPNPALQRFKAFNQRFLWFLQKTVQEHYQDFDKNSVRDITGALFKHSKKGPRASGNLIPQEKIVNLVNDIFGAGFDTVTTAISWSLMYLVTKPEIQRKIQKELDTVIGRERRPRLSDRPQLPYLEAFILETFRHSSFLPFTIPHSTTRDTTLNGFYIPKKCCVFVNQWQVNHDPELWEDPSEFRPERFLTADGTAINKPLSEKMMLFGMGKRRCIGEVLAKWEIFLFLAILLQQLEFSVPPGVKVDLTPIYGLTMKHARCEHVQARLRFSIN
Procedure: as §1, §2, §3

[3] = tested on: LDL; test: Binding to isolated plasma protein by ultrafiltration
Procedure: (§4) To examine the effect of the P8-D6 plasma protein binding on the in vivo bioavailability, human and rat plasma was spiked in vitro and incubated with P8-D6. By using ultrafiltration to separate free P8-D6 from the protein-bound fraction, a plasma protein binding of 99% (Figure A) was estimated. However, neither human α-1-microglobulin (3.06%) nor human serum albumin (0.91%) is responsible for binding. According to initial findings, γ-globulins (94.59%), human transferrin (90.43%), LDL (87.99%), human α2-HS glycoprotein (85.29%), and human fibrinogen (78.89%) lead to binding of P8-D6.
(§5) To examine the extent of plasma protein binding, 150 μL of blank samples of human plasma (1 mM) and rat plasma (1 mM), human albumin (1 mM, #A1653, Merck KGaA, Darmstadt); human α1-acid glycoprotein (1 mM; #G9885, Merck KGaA, Darmstadt); human α2-HS-glycoprotein (0.1 mM; #G0516, Merck KGaA, Darmstadt); human transferrin (0.2 mM; #T8158, Merck KGaA, Darmstadt); human fibrinogen (0.2 mM; #F3879, Merck KGaA, Darmstadt); LDL (0.2 mM; […]); and human γ-globulin (1 mM; #G4386, Merck KGaA, Darmstadt) were spiked with P8-D6 in the same final concentration as the protein and incubated in a shaking water bath at 37 °C for 120 min. Afterward, the unbound fraction of P8-D6 was separated by ultrafiltration (Vivaspin 500 10 000 MWCO filter). The sample preparation was performed according to plasma samples. Blank plasma samples served as the control samples.

[4] = molecular target: T3, human fibrinogen (Homo sapiens, UniProt P02671+P02675+P02679); test: as above
T3 construct: purchased Merck KGaA, Darmstadt F3879
Procedure: as §4, §5

[5] = molecular target: T4, human (Homo sapiens, UniProt P02763); test: as above
T4 construct: purchased Merck KGaA, Darmstadt G9885
T4 sequence (P02763 19-201): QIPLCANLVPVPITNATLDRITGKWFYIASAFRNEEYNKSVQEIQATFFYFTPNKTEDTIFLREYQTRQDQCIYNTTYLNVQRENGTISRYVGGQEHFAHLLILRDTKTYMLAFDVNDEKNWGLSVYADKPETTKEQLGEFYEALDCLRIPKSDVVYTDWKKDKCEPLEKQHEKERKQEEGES
Procedure: as §4, §5

[6] = molecular target: T5, human serum albumin (Homo sapiens, UniProt P02768); test: as above
T5 construct: purchased Merck KGaA, Darmstadt A1653
T5 sequence (P02768 25-609): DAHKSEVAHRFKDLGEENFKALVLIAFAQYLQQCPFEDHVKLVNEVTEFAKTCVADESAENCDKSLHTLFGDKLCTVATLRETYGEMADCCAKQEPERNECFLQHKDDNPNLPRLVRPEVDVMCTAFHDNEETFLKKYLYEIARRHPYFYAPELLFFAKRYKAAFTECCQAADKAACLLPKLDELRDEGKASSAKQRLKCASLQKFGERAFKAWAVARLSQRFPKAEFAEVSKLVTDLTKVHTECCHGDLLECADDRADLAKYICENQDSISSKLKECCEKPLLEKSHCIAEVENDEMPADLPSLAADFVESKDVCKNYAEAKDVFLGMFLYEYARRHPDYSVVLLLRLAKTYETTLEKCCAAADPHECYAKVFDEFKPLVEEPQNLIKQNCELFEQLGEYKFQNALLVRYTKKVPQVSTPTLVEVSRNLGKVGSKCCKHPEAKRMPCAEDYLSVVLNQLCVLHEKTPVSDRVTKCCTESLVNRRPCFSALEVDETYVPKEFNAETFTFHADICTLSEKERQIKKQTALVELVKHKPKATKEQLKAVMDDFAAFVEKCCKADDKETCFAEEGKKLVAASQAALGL
Procedure: as §4, §5

[7] = molecular target: T6, human transferrin (Homo sapiens, UniProt P02787); test: as above
T6 construct: purchased Merck KGaA, Darmstadt T8158
T6 sequence (P02787 20-698): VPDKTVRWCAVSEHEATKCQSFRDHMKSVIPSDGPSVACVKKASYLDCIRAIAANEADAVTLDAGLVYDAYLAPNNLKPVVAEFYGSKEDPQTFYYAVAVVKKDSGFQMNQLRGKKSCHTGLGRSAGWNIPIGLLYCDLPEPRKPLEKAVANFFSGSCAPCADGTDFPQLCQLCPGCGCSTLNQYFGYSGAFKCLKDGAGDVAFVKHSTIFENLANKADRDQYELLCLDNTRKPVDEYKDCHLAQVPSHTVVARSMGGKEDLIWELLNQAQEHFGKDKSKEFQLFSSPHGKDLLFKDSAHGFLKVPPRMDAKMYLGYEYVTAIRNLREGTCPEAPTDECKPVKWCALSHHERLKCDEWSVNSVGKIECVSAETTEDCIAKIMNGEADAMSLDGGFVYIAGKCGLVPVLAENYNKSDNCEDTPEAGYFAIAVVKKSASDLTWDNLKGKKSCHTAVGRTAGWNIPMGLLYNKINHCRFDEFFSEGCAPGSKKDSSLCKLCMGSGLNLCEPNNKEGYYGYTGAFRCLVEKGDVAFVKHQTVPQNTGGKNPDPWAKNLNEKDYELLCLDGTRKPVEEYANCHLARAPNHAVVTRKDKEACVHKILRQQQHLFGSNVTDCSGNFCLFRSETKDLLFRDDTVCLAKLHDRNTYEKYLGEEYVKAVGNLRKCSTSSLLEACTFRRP
Procedure: as §4, §5

[8] = molecular target: T7, human α2-HS glycoprotein (Homo sapiens, UniProt P02765); test: as above
T7 construct: purchased Merck KGaA, Darmstadt G0516
T7 sequence (P02765 19-367): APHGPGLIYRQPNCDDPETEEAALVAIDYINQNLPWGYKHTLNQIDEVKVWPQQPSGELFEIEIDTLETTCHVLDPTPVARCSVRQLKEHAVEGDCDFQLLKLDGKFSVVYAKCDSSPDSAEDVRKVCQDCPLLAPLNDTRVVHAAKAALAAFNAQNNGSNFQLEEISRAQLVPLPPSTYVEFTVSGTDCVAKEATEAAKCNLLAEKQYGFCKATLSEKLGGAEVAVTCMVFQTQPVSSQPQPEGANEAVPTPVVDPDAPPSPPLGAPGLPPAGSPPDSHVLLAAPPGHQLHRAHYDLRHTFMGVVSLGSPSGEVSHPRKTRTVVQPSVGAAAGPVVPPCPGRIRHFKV
Procedure: as §4, §5

[9] = molecular target: T8, P-GP (ABCB1) (Homo sapiens, UniProt P08183); test: Transporter inhibition, calcein-AM accumulation in MDCK cells (P-GP overexpression); type: cell-based; conditions: intracellular accumulation of calcein-AM
T8 construct: expressed in transfected cells; host or cells: MDCK (Madin Darby canine kidney)
T8 sequence (P08183 whole entry, species assumed): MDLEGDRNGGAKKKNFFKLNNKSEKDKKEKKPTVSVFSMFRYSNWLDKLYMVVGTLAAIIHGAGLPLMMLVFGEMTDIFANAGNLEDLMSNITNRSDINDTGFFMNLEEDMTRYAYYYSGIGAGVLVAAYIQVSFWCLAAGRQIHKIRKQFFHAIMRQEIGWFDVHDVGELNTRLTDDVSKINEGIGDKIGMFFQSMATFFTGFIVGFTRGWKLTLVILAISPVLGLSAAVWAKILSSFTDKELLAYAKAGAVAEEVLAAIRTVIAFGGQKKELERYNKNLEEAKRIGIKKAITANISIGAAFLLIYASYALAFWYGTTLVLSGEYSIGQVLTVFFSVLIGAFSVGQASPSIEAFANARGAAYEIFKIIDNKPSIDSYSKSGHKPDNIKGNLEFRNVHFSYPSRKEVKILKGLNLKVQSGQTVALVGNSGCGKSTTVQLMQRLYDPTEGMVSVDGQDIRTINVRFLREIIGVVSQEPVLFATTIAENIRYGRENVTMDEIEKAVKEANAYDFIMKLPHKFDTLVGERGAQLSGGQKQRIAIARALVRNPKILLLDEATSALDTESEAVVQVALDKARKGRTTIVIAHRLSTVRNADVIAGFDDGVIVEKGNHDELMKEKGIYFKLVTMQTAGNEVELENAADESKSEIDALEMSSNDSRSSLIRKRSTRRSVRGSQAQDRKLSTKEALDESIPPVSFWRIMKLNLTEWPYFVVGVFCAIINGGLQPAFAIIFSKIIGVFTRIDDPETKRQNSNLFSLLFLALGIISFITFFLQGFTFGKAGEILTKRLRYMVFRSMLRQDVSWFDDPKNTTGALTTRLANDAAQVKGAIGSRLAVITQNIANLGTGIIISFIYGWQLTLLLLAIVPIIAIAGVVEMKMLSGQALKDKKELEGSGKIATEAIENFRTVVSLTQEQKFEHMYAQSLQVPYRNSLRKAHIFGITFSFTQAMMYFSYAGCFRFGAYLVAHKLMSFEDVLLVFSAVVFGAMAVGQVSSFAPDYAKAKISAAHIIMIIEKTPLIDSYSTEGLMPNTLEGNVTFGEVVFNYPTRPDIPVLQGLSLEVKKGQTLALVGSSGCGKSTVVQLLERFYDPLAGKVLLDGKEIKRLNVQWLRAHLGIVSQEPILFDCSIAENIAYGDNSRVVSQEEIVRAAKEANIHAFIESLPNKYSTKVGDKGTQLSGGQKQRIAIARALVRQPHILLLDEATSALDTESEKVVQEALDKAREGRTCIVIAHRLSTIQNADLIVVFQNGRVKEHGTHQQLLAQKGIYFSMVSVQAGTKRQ
Procedure: The inhibitory characteristics of P8-D6 on the classic efflux transporters P-GP and BCRP (ABCG2) were evaluated (Figure ).
A potential interaction of P8-D6 with the export protein P-GP (ABCB1) was evaluated in MDCK (P-GP overexpression) and MDCKII (BCRP overexpression) cells. P-GP interaction was determined by the measurement of calcein accumulation within the cells according to Bauer et al. Calcein-acetoxymethylester (calcein-AM) is a nonfluorescent, lipophilic and therefore highly cell-permeable ester. Once inside the cell, the ester bonds are rapidly cleaved by nonspecific esterases, generating highly fluorescent calcein, which is trapped inside the cell because of its hydrophilic nature. Because calcein-AM is a substrate for P-GP, inhibition of the transporter decreases efflux, which results in a higher intracellular fluorescence signal. […] Calcein-AM (MoBiTec, Göttingen, FRG) was added to a final concentration of 1 μM and incubated for 30 min at 37 °C. Afterward, the cells were immediately washed 3 times with ice-cold Krebs–Ringer buffer and lysed with 1% Triton X-100. […] Each determination was repeated 3 times in 2 experiments to ensure reproducibility. All fluorescence values were corrected by subtracting the background fluorescence.

[10] = molecular target: T9, CYP3A4 (Homo sapiens, UniProt P08684); test: In vitro CYP inhibition, marker substrate testosterone; type: in vitro ADME
T9 construct: host or cells: human liver microsomes (one value) / recombinant CYP enzyme (other value)
T9 sequence (P08684 whole entry): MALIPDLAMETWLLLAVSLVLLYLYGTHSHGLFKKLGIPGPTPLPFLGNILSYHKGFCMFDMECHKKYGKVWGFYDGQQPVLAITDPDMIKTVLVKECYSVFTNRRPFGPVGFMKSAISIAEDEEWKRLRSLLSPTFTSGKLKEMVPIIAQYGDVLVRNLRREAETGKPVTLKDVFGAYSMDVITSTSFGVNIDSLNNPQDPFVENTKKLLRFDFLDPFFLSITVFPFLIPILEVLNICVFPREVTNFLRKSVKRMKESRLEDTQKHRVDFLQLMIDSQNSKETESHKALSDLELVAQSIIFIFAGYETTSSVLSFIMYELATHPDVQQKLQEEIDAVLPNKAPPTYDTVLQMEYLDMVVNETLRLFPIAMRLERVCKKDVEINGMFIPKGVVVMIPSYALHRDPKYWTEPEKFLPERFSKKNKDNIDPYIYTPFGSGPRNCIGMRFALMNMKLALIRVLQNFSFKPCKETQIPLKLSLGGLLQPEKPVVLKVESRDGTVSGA
Procedure: as §1, §2, §3

[11] = Lipophilicity; type: physicochemical

T1 sequence (P20813 whole entry): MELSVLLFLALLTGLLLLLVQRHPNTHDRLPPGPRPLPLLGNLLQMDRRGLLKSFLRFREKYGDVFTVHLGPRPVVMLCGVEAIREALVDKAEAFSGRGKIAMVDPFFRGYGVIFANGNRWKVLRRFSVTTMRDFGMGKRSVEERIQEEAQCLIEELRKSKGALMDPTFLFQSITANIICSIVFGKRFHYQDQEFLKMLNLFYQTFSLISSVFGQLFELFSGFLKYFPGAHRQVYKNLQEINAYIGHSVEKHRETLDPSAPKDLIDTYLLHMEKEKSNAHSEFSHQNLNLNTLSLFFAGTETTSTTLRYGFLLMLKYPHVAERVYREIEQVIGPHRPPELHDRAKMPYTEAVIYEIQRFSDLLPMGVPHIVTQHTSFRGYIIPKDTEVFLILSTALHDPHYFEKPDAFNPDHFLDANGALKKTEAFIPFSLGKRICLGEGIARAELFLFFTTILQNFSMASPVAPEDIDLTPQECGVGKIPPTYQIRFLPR

In the case of `COc1cc(-c2cc3ccncc3c3nc(OCCN(C)C)c4cnccc4c23)cc(OC)c1OC` [P8-D6, 6-(N,N-dimethyl-2-aminoethoxy)-11-(3,4,5-trimethoxyphenyl)-pyrido[3,4-c][1,9]-phenanthroline], the IC50 ([1]; HLM) is reported as > 1000 µM, the IC50 ([1]; recombinant CYP isoenzyme) is reported as > 1000 µM and the IC50 ([2]; HLM) is reported as 912 µM. The IC50 ([2]; recombinant CYP isoenzyme) was 503 µM, the “binding of P8-D6” value [3] was 87.99% and the “binding of P8-D6” value [4] was 78.89%. For the same molecule, the “binding of P8-D6” value [5] was 3.06%, the “binding of P8-D6” value [6] was 0.91% and the “binding of P8-D6” value [7] was 90.43%. For the same molecule, the “binding of P8-D6” value [8] was 85.29%, the IC50 [9] was 20.6 µM and the IC50 ([10]; HLM) was 165 µM. For the same molecule, the IC50 ([10]; recombinant CYP isoenzyme) was 94 µM, the logP [11] was 2.9 and the logD ([11]; pH 7.4, read-out: log D7.4) was 3.7.
